Laboratory results as given in EP0195841A1, “Quinolinecarboxylic acid derivatives and process for their preparation” (KYORIN PHARMACEUTICAL CO., LTD., priority 1985, dated 1986).
In brackets after ≈: the same amount, converted by molar mass.

What was measured:
Experiment in all cases: Antibacterial spectra, MIC by standard method of Japan Society of Chemotherapy
Type in all cases: cell-based
[1] = tested on: Bacillus subtilis PCI 219; conditions: PCI219, Gram +, 10^6 cells/ml, read-out: Minimum Inhibitory Concentration
[2] = tested on: Staphylococcus aureus 209 P; conditions: Gram +, 10^6 cells/ml
[3] = tested on: S. aureus IID 670 (Terajima); conditions: 10^6 cells/ml
S. epidermidis IID 866 = conditions: 10^6 cells/ml
[4] = tested on: Streptococcus pyogenes IID 692; conditions: 10^6 cells/ml
[5] = tested on: S. pyogenes IID 689 (S-8); conditions: 10^6 cells/ml
S. faecalis IID 682 = conditions: Enterococcus faecalis, IID682, Gram +, 10^6 cells/ml, read-out: Minimum Inhibitory Concentration
S. pneumoniae 2054 = conditions: Gram +, 10^6 cells/ml
E. coli NIHJ JC-2 = conditions: E. coli NIHJ JC-2, Gram −, 10^6 cells/ml
E. coli ATCC 10536 = conditions: 10^6 cells/ml
[6] = tested on: Proteus vulgaris IFO 3167; conditions: Proteus vulgaris IFO 3167, Gram −, 10^6 cells/ml
P. mirabilis IID 994 = conditions: 10^6 cells/ml
P. morganii IID 602 = conditions: Morganella morganii, IID602, Gram −, 10^6 cells/ml, read-out: Minimum Inhibitory Concentration
[7] = tested on: Klebsiella pneumoniae KY 6445; conditions: 10^6 cells/ml
[8] = tested on: Enterobacter cloacae IID 977; conditions: 10^6 cells/ml
[9] = tested on: Citrobacter freundii IID 976; conditions: 10^6 cells/ml
[10] = tested on: Serratia marcescens IID 618; conditions: 10^6 cells/ml
Shigella sonnei IID 969 = conditions: 10^6 cells/ml
Description: Experiment 1. Antibacterial spectra
Antibacterial activity was determined with the standard method recommended by Japan Society of Chemotherapy.

[11] = tested on: Salmonella enteritidis IID 604; conditions: Gram −, 10^6 cells/ml
[12] = tested on: Pseudomonas aeruginosa V-1; conditions: 10^6 cells/ml
[13] = tested on: Pseudomonas aeruginosa IFO 12689; conditions: 10^6 cells/ml
[14] = tested on: Yersinia enterocolitica IID 981; conditions: 10^6 cells/ml
[15] = tested on: Acinetobacter anitratus IID 876; conditions: 10^6 cells/ml
[16] = tested on: Alcaligenes faecalis 0104002; conditions: Gram −, 10^6 cells/ml
[17] = tested on: Bacteroides fragilis GM 7000; conditions: 10^6 cells/ml
[18] = tested on: Bacteroides fragilis 0558; conditions: Gram −, 10^6 cells/ml
[19] = tested on: Bacteroides fragilis 25285; conditions: Gram −, 10^6 cells/ml
[20] = read-out: Minimum Inhibitory Concentration

O=C(O)c1cn(C2CC2)c2c(Cl)c(N3CCNCC3)c(F)cc2c1=O [Example 25, 8-Chloro-l-cyclopropyl-6-fluoro-l,4-dihydro-4-oxo-7-(1-piperazinyl)quinoline-3-carboxylic acid]
MIC [1]: 0.0125 µg/mL (≈ 0.0342 µM)
ratio of activity per that of Ciprofloxacin (bracketed number) [2]: 8
MIC [2, 20]: 0.05 µg/mL (≈ 0.137 µM)
ratio of activity per that of Ciprofloxacin (bracketed number) ([3]; Gram +): 4
MIC ([3]; Staphylococcus aureus, IID670, Gram +, read-out: Minimum Inhibitory Concentration): 0.1 µg/mL (≈ 0.273 µM)
ratio of activity per that of Ciprofloxacin (bracketed number) (S. epidermidis IID 866; Gram +): 8
MIC (S. epidermidis IID 866; Staphylococcus epidermidis, IID866, Gram +, read-out: Minimum Inhibitory Concentration): 0.05 µg/mL (≈ 0.137 µM)
ratio of activity per that of Ciprofloxacin (bracketed number) ([4]; Gram +): 2
MIC ([4]; IID692, Gram +, read-out: Minimum Inhibitory Concentration): 0.39 µg/mL (≈ 1.07 µM)
ratio of activity per that of Ciprofloxacin (bracketed number) ([5]; Gram +): 2
MIC ([5]; Streptococcus pyogenes, IID689, Gram +, read-out: Minimum Inhibitory Concentration): 0.2 µg/mL (≈ 0.547 µM)
MIC (S. faecalis IID 682): 0.2 µg/mL (≈ 0.547 µM)
ratio of activity per that of Ciprofloxacin (bracketed number) (S. pneumoniae 2054): 4
MIC (S. pneumoniae 2054; Streptococcus pneumoniae, read-out: Minimum Inhibitory Concentration): 0.39 µg/mL (≈ 1.07 µM)
ratio of activity per that of Ciprofloxacin (bracketed number) (E. coli NIHJ JC-2): 1
MIC (E. coli NIHJ JC-2; Escherichia coli, NIHJJC2, read-out: Minimum Inhibitory Concentration): ≤ 0.006 µg/mL
MIC (E. coli ATCC 10536; Escherichia coli, ATCC10536, Gram −, read-out: Minimum Inhibitory Concentration): ≤ 0.006 µg/mL
ratio of activity per that of Ciprofloxacin (bracketed number) (E. coli ATCC 10536; Gram −): 2
MIC ([6]; IFO3167, read-out: Minimum Inhibitory Concentration): ≤ 0.006 µg/mL
ratio of activity per that of Ciprofloxacin (bracketed number) [6]: 1
ratio of activity per that of Ciprofloxacin (bracketed number) (P. mirabilis IID 994; Gram −): 1
MIC (P. mirabilis IID 994; Proteus mirabilis, IID994, Gram −, read-out: Minimum Inhibitory Concentration): 0.0125 µg/mL (≈ 0.0342 µM)
MIC (P. morganii IID 602): 0.0125 µg/mL (≈ 0.0342 µM)
ratio of activity per that of Ciprofloxacin (bracketed number) ([7]; Gram −): 1
MIC ([7]; KY6445, Gram −, read-out: Minimum Inhibitory Concentration): 0.0125 µg/mL (≈ 0.0342 µM)
ratio of activity per that of Ciprofloxacin (bracketed number) ([8]; Gram −): 2
MIC ([8]; IID977, Gram −, read-out: Minimum Inhibitory Concentration): 0.025 µg/mL (≈ 0.0683 µM)
ratio of activity per that of Ciprofloxacin (bracketed number) ([9]; Gram −): 0.5
MIC ([9]; IID976, Gram −, read-out: Minimum Inhibitory Concentration): 0.0125 µg/mL (≈ 0.0342 µM)
ratio of activity per that of Ciprofloxacin (bracketed number) ([10]; Gram −): 16
MIC ([10]; IID618, Gram −, read-out: Minimum Inhibitory Concentration): 0.025 µg/mL (≈ 0.0683 µM)
ratio of activity per that of Ciprofloxacin (bracketed number) (Shigella sonnei IID 969; Gram −): 1
MIC (Shigella sonnei IID 969; IID969, Gram −, read-out: Minimum Inhibitory Concentration): ≤ 0.006 µg/mL
ratio of activity per that of Ciprofloxacin (bracketed number) [11]: 2
MIC ([11]; Salmonella enterica, read-out: Minimum Inhibitory Concentration): 0.0125 µg/mL (≈ 0.0342 µM)
ratio of activity per that of Ciprofloxacin (bracketed number) ([12]; Gram −): 4
MIC ([12]; V1, Gram −, read-out: Minimum Inhibitory Concentration): 0.05 µg/mL (≈ 0.137 µM)
ratio of activity per that of Ciprofloxacin (bracketed number) ([13]; Gram −): 1
MIC ([13]; IFO12689, Gram −, read-out: Minimum Inhibitory Concentration): 0.39 µg/mL (≈ 1.07 µM)
ratio of activity per that of Ciprofloxacin (bracketed number) ([14]; Gram −): 2
MIC ([14]; IID981, Gram −, read-out: Minimum Inhibitory Concentration): 0.025 µg/mL (≈ 0.0683 µM)
MIC ([15]; Acinetobacter calcoaceticus, IID876, Gram −, read-out: Minimum Inhibitory Concentration): 0.05 µg/mL (≈ 0.137 µM)
ratio of activity per that of Ciprofloxacin (bracketed number) ([15]; Gram −): 0.5
ratio of activity per that of Ciprofloxacin (bracketed number) [16]: 2
MIC [16, 20]: 0.02 µg/mL (≈ 0.0547 µM)
MIC ([17]; GM7000, Gram −, read-out: Minimum Inhibitory Concentration): 0.39 µg/mL (≈ 1.07 µM)
ratio of activity per that of Ciprofloxacin (bracketed number) ([17]; Gram −): 8
ratio of activity per that of Ciprofloxacin (bracketed number) [18]: 16
MIC [18, 20]: 0.2 µg/mL (≈ 0.547 µM)
ratio of activity per that of Ciprofloxacin (bracketed number) [19]: 16
MIC [19, 20]: 0.2 µg/mL (≈ 0.547 µM)
